Data on one compound can be found in PMC3880807 (ACS chemical biology, 2013).

The structures appear in SMILES notation.

The target of the test is Src (Gallus gallus, UniProt P00523, Y527F). In words: In vitro activity assay with Src phospho-isoforms. To be noted: npY416-Src vs pY416-Src. In kind it is biochemical.

Take `CNC(=O)c1cc(Oc2ccc(NC(=O)Nc3cc(C(C)(C)C)nn3-c3ccc4ncccc4c3)c(F)c2)ccn1` [compound 1, Rebastinib]: the “Fold-difference in Ki, preference for npY416-Src over pY416-Src” value was ~ 11 fold.
